Experimental data published in US12697366B2, “Thermogenic compositions and methods” (Ohio State Innovation Foundation, priority 2016, dated 2026).

Columns and labels:
[1] = test system: PPARα-LBD; assay: PPARα-LBD luciferase reporter in transiently transfected HEK293 cells; type: cell-based, human; conditions: EREG 50 ng/mL; EGFR-I 10 μM, MAPK-I 10 μM, HSL-I 10 μM, SRC-I 1 μM, PI3K-I 100 nM
Protocol: FIGS. 11A to 11I show adipokine Ereg is bilaterally associated with obesity and thermogenesis and activates PPARα. […] Microarray gene analysis was performed using Affymetrix microarray. FIG. 11B: Ereg expression was measured in non-differentiated and differentiated (day 5) 3T3-L1 adipocytes (Mann-Whitney test) using a customized NanoString mouse panel. FIG. 11C: Ereg expression was measured in differentiated (day 5) 3T3-L1 and Aldh1a1^−/− adipocytes by Taqman and normalized to TATA box protein (TBP). FIG. 11D: Plasma EREG concentrations were measured in mice from Study 1 by western blot. […] FIG. 11E: Plasma EREG concentrations were measured and quantified in iAb of WT and ob/ob mice from Study 2 by western blot (n=5 per each group). […] FIG. 11F: EREG was measured in iAb, subcutaneous and brown fat by western blot. Fat pads were dissected from WT mice on regular chow (Study 1). FIG. 11G: Ucp2 and Ucp1 expression was measured in differentiated 3T3-L1 adipocytes (day 5) stimulated with vehicle (PBS) or recombinant EREG (50 ng/mL) added in the differentiation medium I and II. Expression level were measured by Taqman and normalized by TBP. FIGS. 11H and 11I: HEK293 cells were transiently transfected with PPARα-LBD, UASTK-luciferase, and renilla. […] Data represents % PPARα-LBD activation. Asterisks indicate significant difference (p<0.05) compared to vehicle control, #, indicates statistical difference between PPARα-LBD activation by EREG alone and in the presence of inhibitors. Data represent mean±SD. The Mann-Whitney test was used throughout these studies for group comparison.
HEK293 cells ([…] cells, 24-well plates) were used for transient transfection experiments. Cells were transfected with human PPARα-LBD construct, yeast UASTK luciferase reporter (SwitchGear Genomics, Menlo Park, CA), using Fugene (Roche Applied Science, Indianapolis, IN). Transfections were carried out in OptiMeM (Invitrogen, Carlsbad, CA) medium for 12 hours as described previously. Luciferase was measured using Promega assay according to manufacturer's instructions

[2] = test system: 3T3-L1 adipocytes; assay: LTA axon guidance gene expression in 3T3-L1 adipocytes (NanoString mouse innervation panel); type: cell-based; conditions: 24 hrs; for Efna5 and Epha4 expression: TTNPB 50 nM or BMS493 100 nM
Protocol: FIG. 5A to 5I show retinoids regulate the LTA axon guiding secretome via ephrin A5. FIG. 5A: DRG neurons were cultured in DRG culture medium with secretome from Aldh1a1^−/− adipocytes (1/1, v/v) that were treated with or without RA (100 nM). RA was added to Aldh1a1^−/− differentiation medium (Day 0, 2, 5). To prepare this secretome, medium was collected for last 24 hours. Representative images were selected from three independent experiments. Average neurite growth indices were measured by XTI microscopy in DRG neurons in DRG culture medium containing veh (white bar), NGF (vertical lined bar), or Aldh1a1^−/− secretome treated without (black bar) or with RA (hatched bar). An asterisk indicates P<0.05; Mann-Whitney U test. FIG. 5B: 3T3-L1 adipocytes (n=3) were cultured in differentiation medium for 4 days. At day 5, medium was replaced by UV-treated 1% FBS-contained DMEM with and without Rald (30 nM). 24 hrs post stimulation, cells were harvested for mRNA. The gene expression was measured by the customized NanoString mouse innervation panel. […] Gene expression was measured by the NanoString mouse innervation panel. […] Protein levels of ephrin-A5 ligand (EFNA5) in medium EFNA5 and β-actin in cell lysates were analyzed by Western blot at Day 0, 2, 4, and 6. FIG. 5F: Plasma from WT and Aldh1a1^−/− mice (Table 1, Study 4) was measured by EFNA5 ELISA (n=5 per group) Table 1, Study 4. […] FIG. 5H: Tyrosine hydroxylase (TH) protein levels was analyzed in whole subcutaneous (Western blot insert) and iAb fat pads from mice injected with PBS (n=3) or EFNA5 (n=4, Table 1, Study 5) by Western blot. […] FIG. 5I: Heat (metabolic rate) was measured in PBS- and EFNA5-injected mice from Study 4 after 4° C. exposure by an open circuit indirect calorimetry treadmill (basal metabolic rate for 42 h is shown in FIG. 9C). […]
NanoString's nCounter analysis (NanoString Technologies) system performed direct detection of target molecules from a single sample using color-coded molecular barcodes, giving a digital quantification of the number of target molecules as described before (Shen et al., 2015, PMID: 25620076). […]

[3] = test system: iAb (omental) fat explants; assay: LEP release from iAb (omental) fat explants of an obese patient (ELISA); type: cell-based, human; conditions: EGFR-I, MAPK-I, PI3K-I
Protocol: FIGS. 14A to 14N show EREG induces expression of thermogenic and PPARα-target genes, suppresses inflammatory genes, and stimulates leptin secretion. FIGS. 14A to 14H and 14L: Markers for thermogenesis, adipogenesis, and inflammatory genes were analyzed using homogenates from whole iAb fat pads isolated from Veh- (white bars) and EREG-treated (black bars) DIO mice (Study 3). Gene expression was quantified using a customized NanoString panel. Data represent mean±SD, n.s.,—non-significant. FIG. 14I: LEP was measured in plasma in the same mice by ELISA. Data (mean±SD) are shown as percent to control (Veh, 100%) and is indicated as a dashed line. FIG. 14J: LEP release after stimulation with different concentrations of recombinant human EREGs was measured in explants of iAb (omental) tissue obtained from an obese insulin resistant patient. FIG. 14K: LEP release after stimulation of explants from same donor with and without EREG (50 ng/mL) in the presence and absence of insulin (Ins, 10 μg/mL), MAPK-I, EGFR-I, PI3K-I. Inhibitors concentrations were described in FIG. 1. FIG. 14M: LEP release after stimulation of iAb fat explants (2 h) from WT mice with different concentrations of recombinant mouse EREG. Experiment was repeated in three different WT mice. Data (mean±SD) are shown as percent to control (Veh, 100%). FIG. 14N: LEP release following stimulation of iAb fat explants (2 h) from WT mice with inhibitors of EGFR (10 μM) and MAPK (10 μM) in the presence or absence of EREG (50 ng/ml). Data (mean±SD) are shown as percent to control (Veh, 100%).
Abdominal fat tissue obtained from an obese patient was excised into 35 mg sections for stimulation with EREG. Explants were stimulated with EREG in DMEM containing 1% FBS for 2 h. Media was collected after 2 h, lyophilized and reconstituted in 120 μL deionized water for leptin detection using ELISA kit (Alpco, Salem, NH).

[4] = test system: 3T3-L1 preadipocytes; assay: FD-glucose uptake in 3T3-L1 preadipocytes; type: cell-based, mouse; conditions: 30 mins; insulin 10 μg/ml, EREG 50 ng/ml, forskolin 4 μg/ml
Protocol: Non-differentiated, 90% confluent 3T3-L1 cells were starved with glucose-deprived medium for 40 min. Then cells were treated in the presence and absence of different concentrations of nanoscaffold #2 and bovine insulin (200 μg/mL), all of reagents dissolved in the same glucose-deprived medium but containing fluorescent-D (FD)-glucose for 80 min. Thereafter, the FD glucose uptake was measured according to manufacturer's instructions (Cayman Chemical, USA, cat #600471). […] Non-differentiated, 90% confluent 3T3-L1 cells treated in the presence and absence of different concentrations of nanoscaffold #2 and bovine insulin (10 μg/mL) or mouse epiregulin (EREG, 0.05 μg/mL) and incubated for 24 h. Then cells were starved with glucose-deprived medium for 40 min and, then incubated with fluorescent-D (FD)-glucose for 80 min. Thereafter, the FD glucose uptake was measured according to manufacturer's instructions (Cayman Chemical, USA, cat #600471). Data are shown as percent of uptake in the presence of insulin (100%).
Non-differentiated, 90% confluent 3T3-L1 cells treated in the presence of bovine insulin (10 μg/mL), mouse epiregulin (EREG, 0.05 μg/mL), or their combinations and incubated for 24 h. Then cells were starved with glucose-deprived medium for 40 min and, then incubated with fluorescent-D (FD)-glucose for 80 min. Thereafter, the FD glucose uptake was measured according to manufacturer's instructions (Cayman Chemical, USA, cat #600471).
Non-differentiated, 90% confluent 3T3-L1 cells were starved with glucose-deprived medium for 50 min. Then cells were treated in the presence and absence of different concentrations of mouse recombinant IGFBP4 with and without nanoscaffold #2 and human insulin (10 μg/mL). All of reagents were dissolved in the same glucose-deprived medium but containing fluorescent-D (FD)-glucose for 90 min. Thereafter, the FD glucose uptake was measured according to manufacturer's instructions (Cayman Chemical, USA, cat #600471).
Glucose uptake assay was performed using glucose uptake cell-based assay kit (Cayman Chemical, Ann Arbor, MI). 3T3-L1 or human preadipocytes were cultured at a density of 5×10^4 per well into a 96-well plate (n=7) in high glucose media and grown overnight. Old cell culture medium was removed the next day and washed with PBS to remove residual glucose. Supplied 2-deoxy-2-[(7-nitro-2,1,3-benzoxadiazol-4-yl)amino]-D-glucose) (2-NBDG) was diluted to 150 μg/mL in DMEM medium without glucose, phenol red, L-glutamine, sodium pyruvate, and HEPES (Life technologies, Grand Island, New York). 100 μL of 2-NBDG glucose free medium with or without recombinant EREG and other treatments was added to the plated cells. After incubating at 37° C. for 30 minutes, cells were washed gently two times with 200 μL of glucose assay buffer. 100 μL of the assay buffer was added to each well and measured for fluorescence at an excitation/emission of 485/535 nm.
Fluorescence glucose uptake (FD-glucose assay) was performed as described PMID: 32065973, using insulin, 1.7 μM and different AACs at concentration 0.1 μM.
FD-glucose uptake in mouse 3T3-L1 preadipocytes (n=8 per treatment) treated with vehicle (Veh; PBS, open bar) or hINS (1.7 μM), mouse leptin (mLep; 12.5 nM, hatched bar), or AAC2 (0.1 μM black bar) in the presence and absence of GLUT1 inhibitor (BAY-876; 10 nM in DMSO). Cells were pre-treated with or without BAY-876 for 40 min and then FD glucose and treatment reagents were added for additional 80 min of incubation. Data (%) was normalized to FD-glucose uptake in control (Veh) 3T3-L1 cells without inhibitor (100%). Student's independent t-test.

SMILES: COc1ccc(Cl)c(Nc2ncnc3cc(OCC4CCN(C)CC4)c(OC)cc23)c1 [SRC inhibitor, AZM475271]
- EREG-dependent PPARα-LBD activation in the presence of inhibitor [1]: now effect

SMILES: C/C(=C\c1ccc(C(=O)O)cc1)c1ccc2c(c1)C(C)(C)CCC2(C)C [TTNPB]
- Efna5 and Epha4 expression [2]: suppressed

SMILES: COc1cc2ncnc(Nc3cccc(Cl)c3)c2cc1OC [EGFR inhibitor, Tyrphostin AG1478]
- EREG / insulin mediated LEP release in the presence of inhibitor [3]: inhibited
- EREG-dependent PPARα-LBD activation in the presence of inhibitor [1]: abolished

SMILES: CC1=C(/C=C/C(C)=C/C=C/C(C)=C/C=O)C(C)(C)CCC1 [retinaldehyde]
- expression of molecules associated with the LTA-axon guidance secretome ([2]; Rald 30 nM): significantly increased

SMILES: N#CC(=C(/N)Sc1ccccc1N)/C(C#N)=C(\N)Sc1ccccc1N [MAPK inhibitor, U0126]
- EREG / insulin mediated LEP release in the presence of inhibitor [3]: inhibited
- EREG-dependent PPARα-LBD activation in the presence of inhibitor [1]: abolished

SMILES: CC1(C)CC=C(C#Cc2ccccc2)c2cc(/C=C/c3ccc(C(=O)O)cc3)ccc21 [BMS429]
- Efna5 and Epha4 expression [2]: induced

SMILES: C=C[C@@]1(C)CC(=O)[C@]2(O)[C@@]3(C)[C@@H](O)CCC(C)(C)[C@@H]3[C@H](O)[C@H](OC(C)=O)[C@@]2(C)O1 [forskolin, reference compound]
- glucose uptake compared to non-stimulated 3T3-L1 preadipocytes [4]: 245%

SMILES: COc1nn(-c2ccc(NC(=O)OCc3ccccc3)c(C)c2)c(=O)o1 [HSL inhibitor, CAY10499]
- EREG-dependent PPARα-LBD activation in the presence of inhibitor [1]: abolished
